Reference: patent publication US7476666B2, “HIV integrase inhibitors” (Merck & Co., Inc., priority 2004, dated 2009)

System: acute HIV infection of T-lymphoid cells
Assay: Inhibition of acute HIV infection of T-lymphoid cells (spread assay)
Format: cell-based
Settings: Human immunodeficiency virus 1
Description: An assay for the inhibition of acute HIV infection of T-lymphoid cells (alternatively referred to herein as the “spread assay”) was conducted in accordance with Vacca, J. P. et al., Proc. Natl. Acad. Sci. USA 1994, 91: 4096.

Row | Structure (SMILES) | IC95 [µM]
1 | CN1CC(c2ccccc2)n2nc(C(=O)NCc3ccc(F)cc3)c(O)c2C1=O (stereo not drawn) [Example 2, N-(4-Fluorobenzyl)-3-hydroxy-5-methyl-4-oxo-7-phenyl-4,5,6,7-tetrahydropyrazolo[1,5-a]pyrazine-2-carboxamide] | ≤ 10
2 | CNC(=O)c1cc(F)ccc1CNC(=O)c1nn2c(c1O)C(=O)N(C)CC2c1ccccc1 (stereo not drawn) [Example 3, N-(4-Fluoro-2-[(methylamino)carbonyl]benzyl)-3-hydroxy-5-methyl-4-oxo-7-phenyl-4,5,6,7-tetrahydropyrazolo[1,5-a]pyrazine-2-carboxamide] | ≤ 10
3 | CNC(=O)c1nn2c(c1O)C(=O)N(Cc1ccc(F)cc1)CC2c1ccccc1 (stereo not drawn) [Example 4, 5-(4-Fluorobenzyl)-3-hydroxy-N-methyl-4-oxo-7-phenyl-4,5,6,7-tetrahydropyrazolo[1,5-a]pyrazine-2-carboxamide] | ≤ 10
4 | CC1Cn2nc(C(=O)NCc3ccc(F)cc3)c(O)c2C(=O)N1C (stereo not drawn) [Example 5, 5,6-Dimethyl-N-(4-fluorobenzyl)-3-hydroxy-4-oxo-4,5,6,7-tetrahydropyrazolo[1,5-a]pyrazine-2-carboxamide] | ≤ 10
5 | CN1CC(C(=O)N2CCCCC2)n2nc(C(=O)NCc3ccc(F)cc3)c(O)c2C1=O (stereo not drawn) [Example 7, N-(4-Fluorobenzyl)-3-hydroxy-5-methyl-4-oxo-7-(piperidin-1-ylcarbonyl)-4,5,6,7-tetrahydropyrazolo[1,5-a]pyrazine-2-carboxamide] | ≤ 10
6 | CN(C)C(=O)C1(C)CN(C)C(=O)c2c(O)c(C(=O)NCc3ccc(F)cc3)nn21 (stereo not drawn) [Example 8, 5,7-Dimethyl-N-(4-fluorobenzyl)-3-hydroxy-7-(dimethylaminocarbonyl)-4-oxo-4,5,6,7-tetrahydropyrazolo[1,5-a]pyrazine-2-carboxamide] | ≤ 10
7 | CN1CC(CN2CCCCC2)n2nc(C(=O)NCc3ccc(F)cc3)c(O)c2C1=O (stereo not drawn) [Example 9, N-(4-fluorobenzyl)-3-hydroxy-5-methyl-4-oxo-7-(piperidin-1-ylmethyl)-4,5,6,7-tetrahydropyrazolo[1,5-a]pyrazine-2-carboxamide] | ≤ 10
8 | Cc1cn(C)c(=O)c2c(O)c(C(=O)NCc3ccc(F)cc3)nn12 [Example 10, 5,7-Dimethyl-N-(4-fluorobenzyl)-3-hydroxy-4-oxo-4,5-dihydropyrazolo[1,5-a]pyrazine-2-carboxamide] | ≤ 10
9 | Cc1csc(C2CN(C)C(=O)c3c(O)c(C(=O)NCc4ccc(F)cc4)nn32)n1 (stereo not drawn) [Example 11, N-(4-Fluorobenzyl)-3-hydroxy-5-methyl-7-(4-methyl-1,3-thiazol-2-yl)-4-oxo-4,5,6,7-tetrahydropyrazolo[1,5-a]pyrazine-2-carboxamide] | ≤ 10
10 | Cc1nc(C2CN(C)C(=O)c3c(O)c(C(=O)NCc4ccc(F)cc4)nn32)cs1 (stereo not drawn) [Example 12, N-(4-Fluorobenzyl)-3-hydroxy-5-methyl-(2-methyl-1,3-thiazol-4-yl)-4-oxo-4,5,6,7-tetrahydropyrazolo[1,5-a]pyrazine-2-carboxamide] | ≤ 10
11 | CN(Cc1ccc(F)cc1)C(=O)c1nn2c(c1O)C(=O)N(C)CC2 [Example 13, 2-[4-fluorobenzyl(methyl)aminocarbonyl]-3-hydroxy-5-methyl-4-oxo-4,5,6,7-tetrahydropyrazolo[1,5-a]pyrazine-2-carboxamide] | ≤ 10
12 | CN1CCn2nc(C(=O)NCc3ccc(F)cc3S(C)(=O)=O)c(O)c2C1=O [Example 15, N-[4-Fluoro-2-(methylsulfonyl)benzyl]-3-hydroxy-5-methyl-4-oxo-4,5,6,7-tetrahydropyrazolo[1,5-a]pyrazine-2-carboxamide] | ≤ 10
13 | O=C(NCc1ccc(Cl)c(Cl)c1)c1nn2c(c1O)C(=O)N(CC(=O)N1CCOCC1)CC2 [Example 20, N-(3,4-Dichlorobenzyl)-3-hydroxy-5-[2-(4-morpholinyl)-2-oxoethyl]-4-oxo-4,5,6,7-tetrahydropyrazolo[1,5-a]pyrazine-2-carboxamide] | ≤ 10
14 | O=C(NCc1ccc(Cl)c(Cl)c1)c1nn2c(c1O)C(=O)N(CC1CC1)CC2 [Example 21, 5-Cyclopropylmethyl-N-(3,4-dichlorobenzyl)-3-hydroxy-4-oxo-4,5,6,7-tetrahydropyrazolo[1,5-a]pyrazine-2-carboxamide] | ≤ 10
15 | O=C(NCc1ccc(Cl)c(Cl)c1)c1nn2c(c1O)C(=O)N(CCN1CCOCC1)CC2 [Example 22, N-(3,4-Dichlorobenzyl)-3-hydroxy-5-[2-(4-morpholinyl)ethyl]-4-oxo-4,5,6,7-tetrahydropyrazolo[1,5-a]pyrazine-2-carboxamide] | ≤ 10
16 | O=C(NCCN1CCOCC1)c1nn2c(c1O)C(=O)N(Cc1ccc(F)cc1)CC2 [Example 23, 5-(4-Fluorobenzyl)-3-hydroxy-N-[2-(4-morpholinyl)ethyl]-4-oxo-4,5,6,7-tetrahydropyrazolo[1,5-a]pyrazine-2-carboxamide] | ≤ 10
17 | CCCCNC(=O)c1nn2c(c1O)C(=O)N(Cc1ccc(F)cc1)CC2 [Example 24, N-Butyl-5-(4-fluorobenzyl)-3-hydroxy-4-oxo-4,5,6,7-tetrahydropyrazolo[1,5-a]pyrazine-2-carboxamide] | ≤ 10
18 | O=C(c1nn2c(c1O)C(=O)N(Cc1ccc(F)cc1)CC2)N1CCC1 [Example 27, 2-(Azetidin-1-ylcarbonyl)-5-(4-fluorobenzyl)-3-hydroxy-4-oxo-4,5,6,7-tetrahydropyrazolo[1,5-a]pyrazine] | ≤ 10
19 | O=C(NCc1ccc(F)cc1)c1nn2c(c1O)C(=O)NCCC2 [Example 29, N-(4-Fluorobenzyl)-3-hydroxy-4-oxo-5,6,7,8-tetrahydro-4H-pyrazolo[1,5-a][1,4]diazepine-2-carboxamide] | ≤ 10
20 | COC(=O)c1nn2c(c1O)C(=O)N(Cc1ccc(F)cc1)CCC2 [Example 30, Methyl 5-(4-Fluorobenzyl)-3-hydroxy-4-oxo-5,6,7,8-tetrahydro-4H-pyrazolo[1,5-a][1,4]diazepine-2-carboxylate] | ≤ 10
21 | CN1CC(c2cccnc2)n2nc(C(=O)NCc3ccc(F)cc3)c(O)c2C1=O (stereo not drawn) [Example 31, N-(4-fluorobenzyl)-3-hydroxy-5-methyl-4-oxo-7-pyridin-3-yl-4,5,6,7-tetrahydropyrazolo[1,5-a]pyrazine-2-carboxamide] | ≤ 10
22 | Cn1c(=O)c2c(O)c(C(=O)NCc3ccc(F)cc3)nn2c2ccccc21 [Example 32, N-(4-fluorobenzyl)-3-hydroxy-5-methyl-4-oxo-4,5-dihydropyrazolo[1,5-a]quinoxaline-2-carboxamide] | ≤ 10
23 | CNC(=O)c1cc(F)ccc1CNC(=O)c1nn2c(c1O)C(=O)N(C)C[C@@H]2c1ccccc1 [Example 33, (7S)—N-{4-Fluoro-2-[(methylamino)carbonyl]benzyl}-3-hydroxy-5-methyl-4-oxo-7-phenyl-4,5,6,7-tetrahydropyrazolo[1,5-a]pyrazine-2-carboxamide] | ≤ 10
24 | CNC(=O)c1cc(F)ccc1CNC(=O)c1nn2c(c1O)C(=O)N(C)C[C@H]2c1ccccc1 [Example 34, (7R)-N-{4-Fluoro-2-[(methylamino)carbonyl]benzyl}-3-hydroxy-5-methyl-4-oxo-7-phenyl-4,5,6,7-tetrahydropyrazolo[1,5-a]pyrazine-2-carboxamide] | ≤ 10
